pIC50: −log10 of the molar value. Read-outs that look alike come from different tables or passages of the source.
Legend:
CoA-IT = test: Assay (b): CoA-IT activity in U937 cell microsomes; type: biochemical, human; settings: for inhibition of CoA-IT activity in the microsomal CoA-IT assay: generally at 50 μM or less
Source text: Assay (b): CoA-IT Activity
The following is a method to measure CoA-IT activity and the effects of compounds on CoA-IT activity. The assay is based upon mixing cellular material containing CoA-IT activity with a stable lyso phospholipid such as […] and measuring the production of phospholipid product such as […] occurring in the absence of added CoA or CoA-fatty acids.
Any inflammatory cell that contains high levels of CoA-IT activity can be used, such as neutrophils, macrophages or cell lines such as U937 cells. […] Cells were grown without differentiation (basal state) by any agent, such as dimethyl sulfoxide. As used herein, "inflammatory cells" include, but are not limited to neutrophils, macrophages, monocytes, lymphocytes, eosinophils, basophils, and mast cells.
Microsomes were prepared using standard techniques. In this case, cells were washed with a buffer of 250 mM sucrose, 10 mM Tris, 1 mM EGTA, 1 mM MgCl2, pH 7.4 and ruptured by N2 cavitation (750 psi, 10 minutes). The ruptured cells were centrifuged 1000× g, 5 minutes. The resulting supernatant was centrifuged at 20,000×g,~20 minutes. Microsomes were prepared from this supernatant by centrifugation at 100,000× g, 60 minutes. The resulting pellet was washed once with assay buffer (150 mM NaCl, 10 mM Na2 KPO4, 1 mM EGTA, pH 7.4), recentrifuged and the pellet resuspended in assay buffer (4-20 mg protein/ml) and was stored at -80° C. until assayed.
CoA-IT activity was measured in 1.5 ml centrifuge tubes in a total volume of 100 ul. Microsomes were diluted in assay buffer to the desired protein concentration (6-20 ug/tube). The reaction was initiated by addition of [3H] 1-alkyl-2-lyso-sn-glycero-3-phosphocholine (GPC)(~0.1 uCi/tube) and 1 μM final cold 1-alkyl-2-lyso-GPC in assay buffer with 0.25 mg/ml fatty acid-poor bovine serumalbumin (BSA) (Calbiochem, La Jolla, Calif.). [3H]1-alkyl-2-lyso-GPC, approximately 50 Ci/mmol, was from NEN-Dupont (Boston, Mass.) and cold 1-alkyl-2-lyso-GPC was from Biomol (Plymouth Meeting, Penn.). Microsomes were pretreated with desired agents for the desired time (10 minutes) before the addition of [3H]1-alkyl-2-lyso-GPC. The reaction was run for the desired time (10 minutes) at 37° C. The reaction was stopped and the lipids extracted by addition of 100 ul of chloroform:methanol (1:2, v/v) followed by 100 ul of chloroform and 100 ul of 1M KCI. The samples were vortexed and centrifuged at high speed in a microfuge for 2-3 minutes. An aliquot of the chloroform-extracted materials were separated, usually by TLC in chloroform/methanol/acetic acid/water (50:25:8:4, v/v), visualized by radioscanning (Bioscan) and the product, [3H] 1-alkyl-2-acyl-GPC, was scraped and quantified by liquid scintillation spectroscopy. […] Other methods can be used to separate substrate from product, including but not limited to column chromatography, affinity chromatography and post reaction derivitization.

human monocytes = test: Assay (f): stimulated eicosanoid (PGE2, LTC4) release by human monocytes; type: cell-based; settings: Monocyte, 0.25 h, A23187 1 μM, 15 min
Description: Assay (f): Measurement of stimulated eicosanoid release by human monocytes.
Leukocyte-rich leukopaks obtained from Biological Specialties (Lansdale, Pa.) were collected from male volunteers who were not taking anti-inflammatory drugs. Leukopaks were centrifuged (90× g for 15 min) twice to remove the platelet-rich plasma. The cell pellet was washed by centrifugation and resuspended in HBSS without Ca^2+ or Mg^2+. Histopaque 1077 was layered under the cell suspension and centrifuged at 400× g for 30 min to obtain the buffy coat. The interfacial buffy coat, containing monocytes and lymphocytes, was removed and saved. The buffy coat was washed twice with HBSS without Ca^2+ or Mg^2+ by centrifugation. The cell pellet (4-6×10^8 cells/30 mls) was resuspended in iso-osmotic media (RPMI-1640, 10% heat inactivated fetal bovine serum (FBS), 0.2 mM L-glutamine, 2.5 mM HEPES) and layered over an equal volume of 46% Percol mixture (10X PBS/Percol; 9.25/0.75) and 54% iso-osmotic media and centrifuged for 30 min at 1000× g (Marshall and Roshak, Biochem. Cell Biol. 71: 331-339, 1993). The monocyte population located at the interface of the Percoll gradient was removed and washed twice in HBSS without Ca^2+ or Mg^2+.
Monocytes (5×10^6 /ml) were incubated as a suspension in serum-free RPMI- 1640 medium containing the vehicle DMSO (<1%) or drug for 30 min at […] after which vehicle or stimuli was added for the indicated time. The stimulating agent is solubilized in DMSO and appropriate vehicle controls were included in all experiments. The amount of stimuli was chosen from the linear portion of a concentration versus product curve usually representing 60-80% maximal stimulation over the indicated incubation time at 37° C. (A23187, 1 μM,(15 min). The reaction was terminated by reduction of pH through addition of citric acid and centrifugation (10 min, 400× g, 4° C.). Cell viability was monitored before and after experiments using trypan blue exclusion. The cell-free media was decanted and stored at -70° C. until analyzed. Prostaglandin E2 and LTC4 were directly measured in cell-free media using enzyme immunoassay (EIA) kits purchased from Caymen Chemical Co. (Ann Arbor, Mich.). Sample or standard dilutions were made with appropriate media and analyzed in triplicate. Results were obtained by extrapolation from a standard curve prepared in the media and expressed as pg or ng/ml of sample.

[1] = system: TPA-induced Mouse Ear Inflammation; test: Assay (g): TPA-induced Mouse Ear Inflammation (ear edema and MPO); type: in vivo; settings: topical; doses dexamethasone 0.2, scalaradial 0.1, WY 50,295 0.3 (unit not given)
Source text: The ability of compounds that inhibit CoA-IT and/or PLA2 to affect in vivo inflammatory responses may be assessed. Inflammatory responses are induced in the mouse ear by the topical application of a pro-inflammatory agent, such as 12-0-tetradecanoylphorbol 13-acetate (assay g). This produces an edematous response, as measured by increases in ear thickness, as well as increased inflammatory cellular infiltrate, as measured by increases in myeloperoxidase activity (as described in the methods). To further validate the mechanism of action inflammation induced by the direct adminstration of arachidonic acid can be used. In this case compounds altering arachidonic acid mobilization or liberation should be with our effect.
(§1) Male Balb/c inbred mice were obtained from Charle River Breeding Laboratories (Kingston, N.Y.). Within a single experiment mice (22-25 g) were age-matched. These in vivo experiments typically involved use of 5-6 animals/group.
TPA (12-0-tetradecanoylphorbol 13-acetate) (Sigma Chemical Company) in acetone ([…]) was applied to the inner and outer surfaces of the left ear of BALB/c male mice. The thickness of both ears was then measured with a dial micrometer (Mitutoyo, Japan) at both 2 and 4 hours after treatment, and the data expressed as the change in thickness (10^-3 cm) between treated and untreated ears. […] After measuring the edema, the inflammed left ears were removed and stored at -70° C. until they were assayed for MPO (myeloperoxidase) activity where appropriate.
(§2) On the day of the assay, partially thawed ear tissues were minced and then homogenized (10% w/v) with a Tissumizer homogenizer (Tekmar Co.) in 50 mM phosphate buffer (pH 6) containing 0.5% HTAB. The tissue homogenates were taken through three cycles of freeze-thaw, followed by brief sonication (10 sec). The method of Bradley et al. was used with modifications as described. The appearance of a colored product from the MPO-dependent reaction of o-dianisidine (0.167 mg/ml; Sigma) and hydrogen peroxide (0.0005%; Sigma) was measured spectrophotometrically at 460 nm. Supernatant MPO activity was quantified kinetically (change in absorbance measured over 3 min, sampled at 15-sec intervals) using a Beckman DU-7 spectrophotometer and a Kinetics Analysis package (Beckman Instruments, Inc.). One unit of MPO activity is defined as that degrading one micromole of peroxide per minute at 25° C.
Statistical analysis was done using Student's "t" test. The ED50 are values which cause a 50% inhibition of the inflammatory response and are calculated by regression analysis of the dose response data.

[2] = system: Arachidonic acid induced ear inflammation; test: Assay (h): Arachidonic acid induced ear inflammation (ear edema and MPO); type: in vivo, mouse; settings: topical; doses dexamethasone 0.2, scalaradial 0.1, WY 50,295 0.3 (unit not given)
Description: as §1
as §2, with “The appearance of a colored product from the MPO-dependent reaction of o-dianisidine (0.167 mg/ml; Sigma) and hydrogen peroxide (0.0005%; Sigma) was measured spectrophotometrically at 460 nm.” left out
Arachidonic acid is dissolved in acetone (1 mg/ear) to the left ear of BALB/c male mice. The thickness of both ears was measured with a constant pressure thickness guage 1 hour after treatment and the data expressed as the change in thickness between treated and untreated ears. Test compounds or vehicle are given at the time of AA applciation. The inflammatory cell infiltration is measured by MPO activity as described above in the TPA ear edema assay. After the edema measurements are made, the inflamed ears are removed and assayed for MPO activity.

With CN(C)CCC=C1c2ccccc2COc2ccccc21 [Doxepine] the “effect on CoA-IT activity” value (CoA-IT; at concentrations up to 100 μM) was “did not inhibit”.
CCCCCCCCNC(=O)Nc1cc(C(F)(F)F)ccc1Oc1ccccc1C(=O)O [2-[2-[3-(Octyl)ureido]-4-trifluoromethylphenoxy]benzoic acid] was tested, and the “inhibition of CoA-IT activity in the microsomal CoA-IT assay” value (from here on “inhibition of CoA-IT activity”) (CoA-IT) was “inhibit CoA-IT activity”.
For CC(C)(C)CC(C)(C)c1ccc(Oc2ccc(C(F)(F)F)cc2NC(=O)Nc2cc(C(F)(F)F)cc(C(F)(F)F)c2)c(C(=O)O)c1 [Example 4, 2-[2-[3-[3,5-Bis (trifluoromethyl)phenyl]ureido]-4-trifluoromethylphenoxy]-5-(1,1,3,3-tetramethylbutyl)benzoic acid], the “inhibition of CoA-IT activity” value (CoA-IT) was “inhibit CoA-IT activity”.
With CCN(CC)CCCC(C)Nc1c2ccc(Cl)cc2nc2ccc(OC)cc12 (centres unmarked) [quinacrine] the “effect on CoA-IT activity” value (CoA-IT; at concentrations up to 500 μM) was “no effect”.
In the case of O=C(Nc1ccc(Br)cc1)Nc1cc(C(F)(F)F)ccc1Oc1ccccc1C(=O)O [Example 1, 2-[2-[3-(4-Bromophenyl)ureido]-4-(trifluoromethyl)phenoxy]benzoic acid], the pIC50 (human monocytes; read-out: IC50 for LTC4 release) was 6.52, the pIC50 (human monocytes; read-out: IC50 of PGE2 release) was under 5.52 and the “inhibition of CoA-IT activity” value (CoA-IT) was “inhibit CoA-IT activity”.
In the case of CCC(C)(C)c1ccc(Oc2ccc(C(F)(F)F)cc2NC(=O)Nc2cc(C(F)(F)F)cc(C(F)(F)F)c2)c(C(=O)O)c1 [Example 5, 2-[2-[3-[3,5-Bis (trifluoromethyl)phenyl]ureido]-4-trifluoromethylphenoxy]-5-(1,1,-dimethylpropyl)benzoic acid], the “inhibition of CoA-IT activity” value (CoA-IT) was “inhibit CoA-IT activity”.
In the case of COC(=O)c1ccccc1Oc1ccc(C(F)(F)F)cc1NC(=O)Nc1cc(C(F)(F)F)cc(C(F)(F)F)c1 [Example 8, Methyl 2-[2-[3-[3,5-Bis(trifluoromethyl)phenyl]ureido]-4-trifluoromethylphenoxy]benzoate], the “inhibition of CoA-IT activity” value (CoA-IT) was “inhibit CoA-IT activity”.
With COc1ccc2cc([C@H](C)C(=O)O)ccc2c1 [naproxen] the “effect on CoA-IT activity” value (CoA-IT; at concentrations up to 100 μM) was “no effect”.
C[C@@H]1C[C@H]2[C@@H]3CCC4=CC(=O)C=C[C@]4(C)[C@@]3(F)[C@@H](O)C[C@]2(C)[C@@]1(O)C(=O)CO [dexamethasone] was tested, and the “TPA % change in edema” value [1] was -50%, the “change in MPO for TPA model” value [1] was -54 and the “AA % change in edema” value [2] was -10%. The “change in MPO for AA” value [2] was 0.
In the case of Cc1cc(C(C)(C)C)c(O)c(C(C)(C)C)c1 [BHT], the “effect on CoA-IT activity” value (CoA-IT; at concentrations up to 100 μM) was “no effect”.
With O=S1(=O)CCn2c1nc(-c1ccc(F)cc1)c2-c1ccncc1 [6-(4'-Fluorophenyl)-5-(4-pyridyl)2,3-dihydroimidzo-[2,1-b]thiazole-dioxide] the “effect on CoA-IT activity” value (CoA-IT; at concentrations up to 100 μM) was “no effect”.
With COc1ccc2c(c1)c(CC(=O)O)c(C)n2C(=O)c1ccc(Cl)cc1 [indomethicin] the “effect on CoA-IT activity” value (CoA-IT; at concentrations up to 100 μM) was “no effect”.
In the case of C[C@H](C(=O)O)c1ccc2cc(OCc3ccc4ccccc4n3)ccc2c1 [WY 50,295], the “TPA % change in edema” value [1] was -18%, the “AA % change in edema” value [2] was -50% and the “change in MPO for AA” value [2] was -90.
For CC(=O)O[C@H]1C[C@@H]2[C@@]3(C)CCCC(C)(C)[C@@H]3CC[C@@]2(C)[C@@H]2CC=C(C=O)[C@H](C=O)[C@@]12C [scalaradial], the “AA % change in edema” value [2] was -11%.
Fc1ccc(-c2nc3n(c2-c2ccncc2)CCS3)cc1 [6-(4'-Fluorophenyl)-5-(4-pyridyl)-2,3-dihydroimidzo-[2,1-b]thiazole] was tested, and the “effect on CoA-IT activity” value (CoA-IT; at concentrations up to 100 μM) was “no effect”.
In the case of COc1cccc2c1cc([N+](=O)[O-])c1c(C(=O)O)cc3c(c12)OCO3 [aristolochic acid], the “effect on CoA-IT activity” value (CoA-IT; at concentrations up to 500 μM) was “no effect”.

From patent US5447957A, “Anti-inflammatory compounds” (SmithKline Beecham Corp., priority 1994, dated 1995)
